The numbers were not newly measured in patent publication US11737458B2, “Fibrous substrate for capture of gram negative bacteria” (Kimberly-Clark Worldwide, Inc., priority 2015, dated 2023), which cites them from elsewhere.

Turning to `C=CC(=O)O` [acrylic acid], the pKa value entry is on record as “about 4.3”.
